Test results from ChEMBL document CHEMBL4145602, “Cyclic Peptidic Mimetics of Apollo Peptides Targeting Telomeric Repeat Binding Factor 2 (TRF2) and Apollo Interaction” (ACS Med Chem Lett, 2018).
Square brackets hold non-standard residues; d marks the D form. Peptide text beside a SMILES is read from it. Phe(4-NH2) = Nc1ccc(C[C@H](N)C(=O)O)cc1; Gly(cPent) = N[C@H](C(=O)O)C1CCCC1; tBuAla = CC(C)(C)C[C@H](N)C(=O)O; Cha = N[C@@H](CC1CCCCC1)C(=O)O; Chg = N[C@H](C(=O)O)C1CCCCC1; Nva = CCC[C@H](N)C(=O)O

Target: T1, Telomeric repeat-binding factor 2 (Homo sapiens, UniProt Q15554)
T1 sequence (Q15554 whole entry): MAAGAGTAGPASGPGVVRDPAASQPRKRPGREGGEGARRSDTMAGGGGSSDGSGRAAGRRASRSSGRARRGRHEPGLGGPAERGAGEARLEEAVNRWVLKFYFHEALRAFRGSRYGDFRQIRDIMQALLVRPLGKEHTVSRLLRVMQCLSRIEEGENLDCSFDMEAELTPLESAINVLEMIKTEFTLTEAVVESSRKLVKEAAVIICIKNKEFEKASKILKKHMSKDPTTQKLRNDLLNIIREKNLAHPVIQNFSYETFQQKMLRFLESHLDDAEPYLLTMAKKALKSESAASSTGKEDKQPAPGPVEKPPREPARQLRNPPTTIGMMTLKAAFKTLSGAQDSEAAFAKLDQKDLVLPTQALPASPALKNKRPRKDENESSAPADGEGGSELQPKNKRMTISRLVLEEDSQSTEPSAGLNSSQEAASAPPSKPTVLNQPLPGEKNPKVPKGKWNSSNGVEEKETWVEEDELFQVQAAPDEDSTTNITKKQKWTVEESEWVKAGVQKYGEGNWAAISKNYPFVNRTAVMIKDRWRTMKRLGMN
Test: Displacement of 5-((2R,6S,9S,12S,15S,18S,21S,24S)-3-((S)-2-((S)-1-amino-3-methyl-1-oxobutan-2-ylcarbamoyl)pyrrolidine-1-carbonyl)-15-(4-aminobutyl)-2-hydroxy-12-(4-hydroxybenzyl)-6,9,18,24-tetraisobutyl-21-methyl-5,8,11,14,17,20,23,26,29-nonaoxo-4,7,10,13,16,19,22,25,28-nonaazatetratriacontan-34-ylcarbamoyl)-2-(6-hydroxy-3-oxo-3H-xanthen-9-yl)benzoic acid from TRF2 TRFH domain (unknown origin) after 30 mins by fluorescence polarization assay

| Ki | SMILES |
| --- | --- |
| 0.09 µM | CC(=O)N[C@@H](CC(C)C)C(=O)N[C@@H](C)C(=O)N[C@@H](CC(C)C)C(=O)N[C@@H](CCCCN)C(=O)N[C@@H](Cc1ccc(O)cc1)C(=O)N[C@H]1CCCCCCC[C@@H](C(=O)N(C)C)NC(=O)[C@@H]2CCCN2C(=O)[C@H](C)NC(=O)[C@H](CC(C)C)NC1=O |
| 43.2 µM | CC(C)C[C@@H]1NC(=O)[C@@H](NC(=O)[C@@H](N)Cc2ccccc2)CCCCCCCC[C@@H](C(=O)N(C)C)NC(=O)[C@@H]2CCCN2C(=O)[C@H](C)NC1=O |
| 0.21 µM | CC(=O)N[C@@H](CC(C)C)C(=O)N[C@@H](C)C(=O)N[C@@H](CC(C)C)C(=O)N[C@@H](CCCCN)C(=O)N[C@@H](Cc1ccc(O)cc1)C(=O)N[C@@H](CC(C)C)C(=O)N[C@H](C(=O)N[C@H](C(=O)N1CCC[C@H]1C(=O)N[C@H](C(N)=O)C(C)C)[C@@H](C)O)C1CCCCC1 (Ac-LALKYL[Chg]TPV-NH2) |
| 41.4 µM | CC(C)C[C@@H]1NC(=O)[C@@H](NC(=O)[C@@H](N)Cc2ccccc2)CCCCCCC[C@@H](C(=O)N(C)C)NC(=O)[C@@H]2CCCN2C(=O)[C@H](C)NC1=O |
| 130 µM | CC(C)C[C@@H]1NC(=O)[C@@H](NC(=O)[C@@H](N)Cc2ccccc2)CCCCCC[C@@H](C(=O)N(C)C)NC(=O)[C@@H]2CCCN2C(=O)[C@H](C)NC1=O |
| 123 µM | CC(C)C[C@H](NC(=O)[C@H](Cc1ccc(O)cc1)NC(=O)[C@@H](N)CCCCN)C(=O)N[C@@H](CC(C)C)C(=O)N[C@H](C(=O)N1CCC[C@H]1C(=O)N[C@H](C(=O)O)C(C)C)[C@@H](C)O (H-KYLLTPV-OH) |
| 8.5 µM | CC(=O)N[C@@H](CC(C)C)C(=O)N[C@@H](C)C(=O)N[C@@H](CC(C)C)C(=O)N[C@@H](CCCCN)C(=O)N[C@@H](Cc1ccc(O)cc1)C(=O)N[C@@H](CC(C)C)C(=O)N[C@@H](Cc1ccccc1)C(=O)N[C@H](C(=O)N1CCC[C@H]1C(=O)N[C@H](C(N)=O)C(C)C)[C@@H](C)O (Ac-LALKYLFTPV-NH2) |
| 1.4 µM | CC(=O)N[C@@H](CC(C)C)C(=O)N[C@@H](C)C(=O)N[C@@H](CC(C)C)C(=O)N[C@@H](CCCCN)C(=O)N[C@@H](Cc1ccc(O)cc1)C(=O)N[C@@H](CC(C)C)C(=O)N[C@@H](CC1CCCCC1)C(=O)N[C@H](C(=O)N1CCC[C@H]1C(=O)N[C@H](C(N)=O)C(C)C)[C@@H](C)O (Ac-LALKYL[Cha]TPV-NH2) |
| 115 µM | CC(C)C[C@@H]1NC(=O)[C@@H](N)CCCCCCC[C@@H](C(=O)N(C)C)NC(=O)[C@@H]2CCCN2C(=O)[C@H](C)NC1=O |
| 18.4 µM | CC(C)C[C@@H]1NC(=O)[C@@H](NC(=O)[C@H](Cc2ccc(O)cc2)NC(=O)[C@@H](N)CCCCN)CCCCCCC[C@@H](C(=O)N(C)C)NC(=O)[C@@H]2CCCN2C(=O)[C@H](C)NC1=O |
| 14.3 µM | CC(C)C[C@@H]1NC(=O)[C@@H](NC(=O)[C@H](Cc2ccccc2)NC(=O)C[C@@H](N)Cc2ccccc2)CCCCCCC[C@@H](C(=O)N(C)C)NC(=O)[C@@H]2CCCN2C(=O)[C@H](C)NC1=O |

Continued, molecule first:

| SMILES | Ki |
| --- | --- |
| CC(=O)N[C@@H](CC(C)C)C(=O)N[C@@H](C)C(=O)N[C@@H](CC(C)C)C(=O)N[C@@H](CCCCN)C(=O)N[C@@H](Cc1ccc(O)cc1)C(=O)N[C@@H](CC(C)C)C(=O)N[C@H](C(=O)N[C@H](C(=O)N1CCC[C@H]1C(=O)N[C@H](C(N)=O)C(C)C)[C@@H](C)O)C1CCCC1 (Ac-LALKYL[Gly(cPent)]TPV-NH2) | 0.51 µM |
| CC(=O)N[C@@H](CC(C)C)C(=O)N[C@@H](C)C(=O)N[C@@H](CC(C)C)C(=O)N[C@@H](CCCCN)C(=O)N[C@@H](Cc1ccc(O)cc1)C(=O)N[C@@H](CC(C)C)C(=O)N[C@H](C(=O)N[C@H](C(=O)N1CCC[C@H]1C(=O)N[C@H](C(N)=O)C(C)C)[C@@H](C)O)C(C)C (Ac-LALKYLVTPV-NH2) | 61.2 µM |
| CC(C)C[C@H](NC(=O)[C@H](Cc1ccc(O)cc1)NC(=O)[C@H](CCCCN)NC(=O)[C@@H](N)CC(C)C)C(=O)N[C@@H](CC(C)C)C(=O)N[C@H](C(=O)N1CCC[C@H]1C(=O)N[C@H](C(=O)O)C(C)C)[C@@H](C)O (H-LKYLLTPV-OH) | 26.8 µM |
| CC(=O)N[C@@H](CC(C)C)C(=O)N[C@@H](C)C(=O)N[C@@H](CC(C)C)C(=O)N[C@@H](CCCCN)C(=O)N[C@@H](Cc1ccc(O)cc1)C(=O)N[C@@H](CC(C)C)C(=O)N[C@@H](CC(C)C)C(=O)N[C@@H](C)C(=O)N1CCC[C@H]1C(=O)N[C@H](C(N)=O)C(C)C (Ac-LALKYLLAPV-NH2) | 0.24 µM |
| CC(=O)N[C@@H](CC(C)C)C(=O)N[C@@H](C)C(=O)N[C@@H](CC(C)C)C(=O)N[C@@H](CCCCN)C(=O)N[C@@H](Cc1ccc(N)cc1)C(=O)N[C@@H](CC(C)C)C(=O)N[C@@H](CC(C)C)C(=O)N[C@H](C(=O)N1CCC[C@H]1C(=O)N[C@H](C(N)=O)C(C)C)[C@@H](C)O (Ac-LALK[Phe(4-NH2)]LLTPV-NH2) | 0.72 µM |
| CC(C)C[C@H](NC(=O)CN)C(=O)N[C@@H](C)C(=O)N[C@@H](CC(C)C)C(=O)N[C@@H](CCCCN)C(=O)N[C@@H](Cc1ccc(O)cc1)C(=O)N[C@@H](CC(C)C)C(=O)N[C@@H](CC(C)C)C(=O)N[C@H](C(=O)N1CCC[C@H]1C(=O)N[C@H](C(=O)O)C(C)C)[C@@H](C)O (H-GLALKYLLTPV-OH) | 0.38 µM |
| CC(=O)N[C@@H](CC(C)C)C(=O)N[C@@H](C)C(=O)N[C@@H](CC(C)C)C(=O)N[C@@H](C)C(=O)N[C@@H](Cc1ccc(O)cc1)C(=O)N[C@@H](CC(C)C)C(=O)N[C@@H](CC(C)C)C(=O)N[C@H](C(=O)N1CCC[C@H]1C(=O)N[C@H](C(N)=O)C(C)C)[C@@H](C)O (Ac-LALAYLLTPV-NH2) | 3.2 µM |
| CC(=O)N[C@@H](CC(C)C)C(=O)N[C@@H](C)C(=O)N[C@@H](CC(C)C)C(=O)N[C@@H](CCCCN)C(=O)N[C@@H](Cc1ccc(O)cc1)C(=O)N[C@@H](CC(C)C)C(=O)O (Ac-LALKYL-OH) | 461 µM |
| CC(C)C[C@H](NC(=O)[C@@H](N)CC(C)C)C(=O)N[C@H](C(=O)N1CCC[C@H]1C(=O)N[C@H](C(N)=O)C(C)C)[C@@H](C)O (H-LLTPV-NH2) | > 500 µM |
| CC(=O)N[C@@H](CC(C)C)C(=O)N[C@@H](C)C(=O)N[C@@H](CC(C)C)C(=O)N[C@@H](CCCCN)C(=O)N[C@@H](Cc1ccc(O)cc1)C(=O)N[C@@H](CC(C)C)C(=O)N[C@@H](C)C(=O)N[C@H](C(=O)N1CCC[C@H]1C(=O)N[C@H](C(N)=O)C(C)C)[C@@H](C)O (Ac-LALKYLATPV-NH2) | > 100 µM |
| CC(=O)N[C@@H](CC(C)C)C(=O)N[C@@H](C)C(=O)N[C@@H](CC(C)C)C(=O)N[C@@H](CCCCN)C(=O)N[C@@H](Cc1ccc(O)cc1)C(=O)N[C@@H](CC(C)C)C(=O)N[C@@H](CC(C)C)C(=O)N[C@H](C(=O)N1CCC[C@H]1C(=O)O)[C@@H](C)O (Ac-LALKYLLTP-OH) | 1.89 µM |
| CC(C)C[C@H](NC(=O)[C@H](C)NC(=O)[C@@H](N)CC(C)C)C(=O)N[C@@H](CCCCN)C(=O)N[C@@H](Cc1ccc(O)cc1)C(=O)N[C@@H](CC(C)C)C(=O)N[C@@H](CC(C)C)C(=O)N[C@H](C(=O)N1CCC[C@H]1C(=O)N[C@H](C(=O)O)C(C)C)[C@@H](C)O (H-LALKYLLTPV-OH) | 2.2 µM |
| CC[C@H](C)[C@H](NC(=O)[C@H](CC(C)C)NC(=O)[C@H](Cc1ccc(O)cc1)NC(=O)[C@H](CCCCN)NC(=O)[C@H](CC(C)C)NC(=O)[C@H](C)NC(=O)[C@H](CC(C)C)NC(C)=O)C(=O)N[C@H](C(=O)N1CCC[C@H]1C(=O)N[C@H](C(N)=O)C(C)C)[C@@H](C)O (Ac-LALKYLITPV-NH2) | 11.3 µM |
| CCC[C@H](NC(=O)[C@H](CC(C)C)NC(=O)[C@H](Cc1ccc(O)cc1)NC(=O)[C@H](CCCCN)NC(=O)[C@H](CC(C)C)NC(=O)[C@H](C)NC(=O)[C@H](CC(C)C)NC(C)=O)C(=O)N[C@H](C(=O)N1CCC[C@H]1C(=O)N[C@H](C(N)=O)C(C)C)[C@@H](C)O (Ac-LALKYL[Nva]TPV-NH2) | 4.7 µM |
| CC(C)C[C@@H]1NC(=O)[C@@H](NC(=O)[C@@H](N)Cc2ccc(O)cc2)CCCCCCC[C@@H](C(=O)N(C)C)NC(=O)[C@@H]2CCCN2C(=O)[C@H](C)NC1=O | 58.2 µM |
| CC(=O)N[C@@H](CC(C)C)C(=O)N[C@@H](C)C(=O)N[C@@H](CC(C)C)C(=O)N[C@@H](CCCCN)C(=O)N[C@@H](Cc1ccc(O)cc1)C(=O)N[C@@H](CC(C)C)C(=O)N[C@@H](CC(C)(C)C)C(=O)N[C@H](C(=O)N1CCC[C@H]1C(=O)N[C@H](C(N)=O)C(C)C)[C@@H](C)O (Ac-LALKYL[tBuAla]TPV-NH2) | 6.1 µM |
| CC(=O)N[C@@H](CC(C)C)C(=O)N[C@@H](C)C(=O)N[C@@H](CC(C)C)C(=O)N[C@@H](CCCCN)C(=O)N[C@@H](Cc1ccc(O)cc1)C(=O)N[C@@H](CC(C)C)C(=O)N[C@@H](CC(C)C)C(=O)N[C@H](C(=O)N1CCC[C@H]1C(=O)N[C@H](C(=O)O)C(C)C)[C@@H](C)O (Ac-LALKYLLTPV-OH) | 0.34 µM |
| CC(=O)N[C@@H](CC(C)C)C(=O)N[C@@H](C)C(=O)N[C@@H](CC(C)C)C(=O)N[C@@H](CCCCN)C(=O)N[C@@H](Cc1ccc(O)cc1)C(=O)N[C@@H](CC(C)C)C(=O)N[C@@H](CC(C)C)C(=O)N[C@H](C(=O)O)[C@@H](C)O (Ac-LALKYLLT-OH) | 26.3 µM |
| CC(C)C[C@H](NC(=O)[C@H](C)N)C(=O)N[C@@H](CCCCN)C(=O)N[C@@H](Cc1ccc(O)cc1)C(=O)N[C@@H](CC(C)C)C(=O)N[C@@H](CC(C)C)C(=O)N[C@H](C(=O)N1CCC[C@H]1C(=O)N[C@H](C(=O)O)C(C)C)[C@@H](C)O (H-ALKYLLTPV-OH) | 22.8 µM |
